In ChEMBL document CHEMBL1147628, “Identification of novel potent bicyclic peptide deformylase inhibitors” (Bioorg Med Chem Lett, 2004):

These molecules were tested against T1, Peptide deformylase (Staphylococcus aureus subsp. aureus Mu50, UniProt P68825) (assay: Inhibitory activity towards Ni-peptide deformylase of Staphylococcus aureus).
T1 sequence (P68825 whole entry): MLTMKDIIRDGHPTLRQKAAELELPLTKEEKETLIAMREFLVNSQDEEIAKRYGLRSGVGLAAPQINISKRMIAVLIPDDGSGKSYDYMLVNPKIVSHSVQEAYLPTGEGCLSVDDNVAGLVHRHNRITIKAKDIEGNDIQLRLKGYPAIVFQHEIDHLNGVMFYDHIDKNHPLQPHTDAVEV
`O=C(CC1Sc2ccccc2N(CCC2CCCCC2)C1=O)NO` (stereo not given) showed an IC50 of 57 nM.
With `CCCCCN1C(=O)C(CC(=O)NO)Sc2ccccc21` (stereo not given) the IC50 was less than 5 nM.
Molecule `O=C1Nc2ccccc2SC1CNO` (stereo not given) has an IC50 greater than 2000 nM.
With `O=C(CC1Sc2ccccc2N(CCc2ccccc2)C1=O)NO` (stereo not given) the IC50 was less than 5 nM.
`O=C(CC1Sc2ccccc2N(Cc2ccccc2)C1=O)NO` (stereo not given) gave an IC50 of 12 nM.
`O=C(CC1Sc2ccccc2N(CC(=O)Nc2cc(F)ccc2F)C1=O)NO` (stereo not given) gave an IC50 of 58 nM.
`NNC(=O)CC1Sc2ccccc2NC1=O` (stereo not given) gave an IC50 of 330 nM.
`O=C(CC1Sc2ccccc2N(CC2CCCCO2)C1=O)NO` (stereo not given) gave an IC50 of 18 nM.
For `O=C(CC1Sc2ccccc2N(CC(=O)Nc2ccccn2)C1=O)NO` (stereo not given), the IC50 was 343 nM.
For `COCCN1C(=O)C(CC(=O)NO)Sc2ccccc21` (stereo not given), the IC50 was less than 5 nM.
Work on `O=C(CC1Sc2ccccc2NC1=O)NO` (stereo not given) yielded an IC50 of less than 5 nM.
`CONC(=O)CC1Sc2ccccc2NC1=O` (stereo not given) was tested, and the IC50 was 74 nM.
`O=C(CC1C(=O)Nc2ccccc2S1(=O)=O)NO` (stereo not given) gave an IC50 greater than 2000 nM.
`CON(C)C(=O)CC1Sc2ccccc2NC1=O` (stereo not given) was tested, and the IC50 was greater than 2000 nM.
`O=C(O)CC1Sc2ccccc2NC1=O` (stereo not given) gave an IC50 greater than 2000 nM.
For `CCCCC[C@H](CC(=O)NO)C(=O)N[C@H](C(=O)N1CCC[C@H]1CO)C(C)C` [ACTINONIN], the IC50 was less than 5 nM.
Molecule `O=C(CC1Sc2ccccc2N(CCC2OCCO2)C1=O)NO` (stereo not given) has an IC50 of less than 5 nM.
Molecule `O=C(CC1Cc2ccccc2N(CC2CC2)C1=O)NO` (stereo not given) has an IC50 of 175 nM.
Molecule `O=C(CC1Sc2ccccc2N(CC2CCC2)C1=O)NO` (stereo not given) has an IC50 of 41 nM.
`CC(C)CCCN1C(=O)C(CC(=O)NO)Sc2ccccc21` (stereo not given) was tested, and the IC50 was less than 5 nM.
In the case of `N#CCN1C(=O)C(CC(=O)NO)Sc2ccccc21` (stereo not given), the IC50 is reported as 515 nM.
For `O=C(CC1Sc2ccccc2N(CC(=O)N2CCCC2)C1=O)NO` (stereo not given), the IC50 was 397 nM.
Work on `CC(C)(C)C(=O)CN1C(=O)C(CC(=O)NO)Sc2ccccc21` (stereo not given) yielded an IC50 of 50 nM.
With `CC(C)CCN1C(=O)C(CC(=O)NO)Sc2ccccc21` (stereo not given) the IC50 was less than 5 nM.
In the case of `CN1C(=O)C(CC(=O)NO)Sc2ccccc21` (stereo not given), the IC50 is reported as 37 nM.
